Where “and” joins values, the source holds several entries; their conditions need not be identical. Identical values can stand only once.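 Method: 48-hour compound exposure of cells in 96-well plates, five concentrations, linear interpolation of endpoints. At the GI50, growth is halved. TGI: total growth inhibition.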
Tests used:
Assay in all cases: inhibition of tumour cell growth, NCI panel, 48 h
TK-10 renal = test system: TK-10 renal
RXF 393 renal = test system: RXF 393 renal
A498 renal = test system: A498 renal
UACC-257 melanoma = test system: UACC-257 melanoma
PC-3 prostate = test system: PC-3 prostate
NCI-H522 lung = test system: NCI-H522 lung
MALME-3M melanoma = test system: MALME-3M melanoma
DU-145 prostate = test system: DU-145 prostate
HCT-15 colon = test system: HCT-15 colon
UACC-62 melanoma = test system: UACC-62 melanoma

| Compound | GI50 (TK-10 renal) | TGI (TK-10 renal) | GI50 (RXF 393 renal) | TGI (RXF 393 renal) | GI50 (A498 renal) | TGI (A498 renal) | GI50 (UACC-257 melanoma) | TGI (UACC-257 melanoma) | GI50 (PC-3 prostate) | TGI (PC-3 prostate) | GI50 (NCI-H522 lung) | TGI (NCI-H522 lung) | GI50 (MALME-3M melanoma) | TGI (MALME-3M melanoma) | GI50 (DU-145 prostate) | TGI (DU-145 prostate) | GI50 (HCT-15 colon) | TGI (HCT-15 colon) | GI50 (UACC-62 melanoma) | TGI (UACC-62 melanoma) |
| --- | --- | --- | --- | --- | --- | --- | --- | --- | --- | --- | --- | --- | --- | --- | --- | --- | --- | --- | --- | --- |
| Nc1nccc(-c2c(-c3ccc(F)cc3)ncn2CCCN2CCOCC2)n1 | > 25 µM | > 25 µM | > 17 µM | > 25 µM | > 19.2 µM | > 25 µM | > 25 µM | > 25 µM | > 25 µM | > 25 µM | > 25 µM | > 25 µM | > 25 µM | > 25 µM | > 25 µM | > 25 µM | > 25 µM | > 25 µM | > 25 µM | > 25 µM |
| COc1cc([N+](=O)[O-])ccc1NC(=O)C(F)(F)F | – | > 100 µM | – | – | – | > 100 µM | – | > 100 µM | – | > 100 µM | – | > 100 µM | – | – | – | > 100 µM | – | > 100 µM | – | > 100 µM |
| O=C(O)C(Sc1ccc(Cl)cc1)Sc1ccc(Cl)cc1 | – | > 100 µM | – | > 100 µM | – | 95.5 µM | – | > 100 µM | – | > 100 µM | – | > 100 µM | – | > 100 µM | – | > 100 µM | – | > 100 µM | – | 72.1 µM |
| COc1ccc(C2CC(=O)c3c(OC)cc(OC)cc3O2)cc1 (stereo not drawn) | > 100 µM | > 100 µM | > 100 µM | > 100 µM | > 100 µM | > 100 µM | > 100 µM | > 100 µM | > 100 µM | > 100 µM | > 100 µM | > 100 µM | > 100 µM | > 100 µM | > 100 µM | > 100 µM | > 100 µM | > 100 µM | > 100 µM | > 100 µM |
| COc1cc2c3c(n(CCCBr)c(=O)c2cc1OC)-c1ccc(NC(C)=O)cc1C3=O | 19.7 µM | > 100 µM | 13.3 µM | 38.2 µM | 2.69 µM | 8.47 µM | 28.1 µM | > 100 µM | 24.8 µM | > 100 µM | 12.4 µM | > 100 µM | 60.9 µM | > 100 µM | 4.65 µM | > 100 µM | 30.8 µM | > 100 µM | 2.1 µM | 15.7 µM |
| CC(C)CC(N)C(=O)O (stereo not drawn) | – | > 100 µM | – | > 100 µM | – | > 100 µM | – | > 100 µM | – | > 100 µM | – | > 100 µM | – | > 100 µM | – | > 100 µM | – | > 100 µM | – | > 100 µM |
| Cc1c2c(nn1-c1ccc(S(=O)(=O)/N=C3\SCC(=O)N3C(=O)c3ccccc3)cc1)-c1ccccc1CC2 | 98 µM | > 100 µM | 28.8 µM | 77.5 µM | – | – | 92.5 µM | > 100 µM | 42.1 µM | > 100 µM | 96.2 µM | > 100 µM | – | – | 38.6 µM | > 100 µM | 22.4 µM | 49.5 µM | 18.7 µM | 37.6 µM |
| CC[C@H](C)[C@H](NC(=O)[C@H]1CCCCN1C)C(=O)N(C)[C@H](CCc1nc(C(=O)N[C@@H](Cc2ccccc2)C[C@H](C)C(=O)OC)cs1)C(C)C | 7.35 µM | > 25 µM | 0.308 µM | > 25 µM | 0.14 µM | 2.75 µM | 4.43 µM | > 25 µM | 0.375 µM | > 25 µM | 0.0446 µM | 0.143 µM | 3.71 µM | > 25 µM | 0.351 µM | > 25 µM | 0.712 µM | > 25 µM | 0.0986 µM | > 25 µM |
| COC(=O)[C@]12CCC(C)(C)C[C@H]1C1=CC[C@@H]3[C@@]4(C)C/C(=C/c5cccnc5)C(=O)C(C)(C)[C@@H]4CC[C@@]3(C)[C@]1(C)CC2 | 21.4 µM | 55.5 µM | 4.25 µM | 17.5 µM | 11.6 µM | 26.4 µM | 12.5 µM | 42.8 µM | 2.37 µM | 10.4 µM | 8.58 µM | 28.7 µM | 5.24 µM | 18.2 µM | 8.86 µM | > 100 µM | 4.58 µM | 30.5 µM | 2.89 µM | 12.8 µM |
| CC(C)(C)C1=CC(=CC=C2C=CN(CCCCCCCCCCCO)C=C2)C=C(C(C)(C)C)C1=O | – | 3.67 µM | – | 2.47 µM | – | 7.3 µM | – | 4.4 µM | – | 3.68 µM | – | 1.29 µM | – | 3.51 µM | – | 20.7 µM | – | > 100 µM | – | 2.96 µM |
| CC(C)(C)OC(=O)N(CCCN(CCn1c2c(c3ccccc3c1=O)C(=O)c1ccccc1-2)C(=O)OC(C)(C)C)CCn1c2c(c3ccccc3c1=O)C(=O)c1ccccc1-2 | > 50 µM | > 50 µM | 25.9 µM | > 50 µM | > 50 µM | > 50 µM | > 50 µM | > 50 µM | > 50 µM | > 50 µM | 47.6 µM | > 50 µM | > 50 µM | > 50 µM | > 50 µM | > 50 µM | 31.1 µM | > 50 µM | > 50 µM | > 50 µM |
| Cn1cc(-c2csc(-c3cccc(F)c3)n2)c2cccnc21 | 17.9 µM | 38.1 µM | 16 µM | 34.4 µM | – | – | 21.8 µM | 42.6 µM | 16.2 µM | 39.5 µM | 15.9 µM | 36 µM | 17.6 µM | 45.5 µM | 18.2 µM | 32.1 µM | 14 µM | 35.7 µM | 13.8 µM | 27.8 µM |
| Cc1cc(C)cc(Nc2cc(C)nc3nc(C(F)(F)F)nn23)c1 | > 100 µM | > 100 µM | 24.3 µM | > 100 µM | 29 µM | > 100 µM | – | – | > 100 µM | > 100 µM | – | – | > 100 µM | > 100 µM | > 100 µM | > 100 µM | > 100 µM | > 100 µM | > 100 µM | > 100 µM |
| Cc1cc(C2CCCCC2)n(O)c(=O)c1 | 9.91 µM | > 100 µM | 3.02 µM | > 100 µM and 97.2 µM | 7 µM | > 100 µM and 46.7 µM | 2.6 µM | 21.9 µM and 8.45 µM | 3.02 µM | > 100 µM | 4.8 µM | 49.9 µM and 35.2 µM | 2.66 µM | > 100 µM and 49.4 µM | 2.04 µM | > 100 µM | 0.655 µM | > 100 µM and 38.1 µM | 0.873 µM | 8.85 µM and 18.6 µM |
